Where “and” joins values, the source holds several entries; their conditions need not be identical. Equal entries are not always repeated.
Assays:
[1] = biological target: T1, purified recombinant IDO1 (Homo sapiens, UniProt P14902); test: Enzymatic IDO1 inhibition assay (ascorbate/methylene blue reduction system, HPLC detection of kynurenine); type: biochemical; conditions: for IC50: enzymatic, L-Trp 100 µM, 0.01% Triton X-100, 5% DMSO, 20 min at room temperature, pH 6.5, duplicates, read-out: IC50 [ μ M] (SD); for LE [kcal/mol/HA]: ligand efficiency, LE = -RT log(IC50)/number of heavy atoms, from enzymatic IC50
T1 construct: Full-length human IDO1 gene was cloned into the pET-28a vector; inferred from pET-28a vector and HisTrap purification; made in house; host or cells: E. coli Rosetta (DE3)
Description: Enzymatic IC50 values were measured with the ascorbate/methylene blue reduction system[85] in presence of a non-ionic detergent to reduce compound aggregation as described before[28]. Kynurenine and L-Trp concentrations were determined by HPLC through UV detection.
Full-length human IDO1 gene was cloned into the pET-28a vector and expressed in E. coli Rosetta (DE3) cells. […] The culture was harvested and frozen at −80 °C until further use. The frozen cells were lysed by sonication in 20 mM Tris pH 7, 400 mM NaCl, 1 mM MgCl2, 20 mM imidazole, 1 mM DTT, 0.5 mg/mL Lysozyme and Protease inhibitor. After centrifugation, the supernatant was loaded into a HisTrap HP column pre-equilibrated with buffer containing 20 mM Tris pH 7, 500 mM NaCl and 20 mM imidazole, and eluted with the same buffer containing 500 mM imidazole. Fractions containing IDO1 were pooled, concentrated, and injected on a size exclusion chromatography column (HiLoad Superdex S75 16/60) to increase purity. hIDO1 fractions were concentrated to 20 mg/mL in 20 mM Tris pH 7 and 150 mM NaCl.
The enzymatic inhibition assays were performed as described by Takikawa et al.[130] with some modifications. Briefly, the reaction mixture (100 µL) contained potassium phosphate buffer (100 mM, pH 6.5) ascorbic acid (20 mM), catalase (400 units/mL), methylene blue (10 µM), purified recombinant IDO1 (2.5 ng/µL), L-Trp (100 µM), Triton X-100 (0.01%) and DMSO (5 µL). The inhibitors were serially diluted 3-fold for at least 8 different concentrations. After incubation at room temperature for 20 min, the reaction was stopped in its linear phase by addition of trichloroacetic acid solution (40 mL, 30% w/v), and the samples were incubated at 50 °C for 30 min. After centrifugation, 80 µl of supernatant from each well were used for HPLC analysis. The mobile phase for HPLC analysis was composed of 50% (v/v) of methanol and 50% of sodium citrate buffer (40 mM, pH 2.4) containing 400 µM sodium dodecyl sulphate. […] All assays were carried out in duplicates. The activity (Act) of each compound was calculated as Act = RT log(IC50) in analogy to the relation between the binding free energy and the Ki value. The ligand efficiency (LE) was calculated as LE = −Act/NHA, where NHA is the number of non-hydrogen atoms (heavy atoms) in the compound.

HEK 293 T cells = test: Cell viability / cellular toxicity (DAPI staining, cytometry); type: cell-based, human; conditions: compound 200 µM, 7 h
Description: (§1) We tested the cellular hIDO1 inhibitory activity and toxicity of 30 active compounds at a single concentration (Figure 6 and Table 8). As some of the aniline derivatives reacted with Ehrlich’s reagent (p-dimethylaminobenzaldehyde, p-DMAB) used to quantify kynurenine, the kynurenine content of these samples was determined by HPLC. To be able to detect also weak inhibition, compounds were tested at the high concentration of 200 µM (Figure 6A and B, filled bars), except for less soluble compounds (52, 148, 149 and 153), which were tested at a concentration of 50 µM (Figure 6A and B, empty bars).
Following DMSO (negative control) or inhibitor treatments, apoptotic cells were detected by 4′,6-diamidino-2-phenylindole (DAPI) staining. Briefly, after 7 h of incubation, cells were washed with PBS, resuspended in PBS with 1 µg/mL DAPI and immediately analysed using a BD LSR II cytometer. A 405 nm laser with 450/50 nm bandpass filter was used to collect data.

hIDO1 = biological target: T2, hIDO1 (Homo sapiens, UniProt P14902); test: Cellular hIDO1 inhibition (kynurenine production) in transiently transfected HEK 293 T cells; type: cell-based
T2 construct: The full ORF of hIDO1 was cloned into the mammalian expression vector pcDNA6/myc-His; myc-His (vector-encoded); host or cells: HEK 293 T
Description: as §1
The cDNA encoding hIDO1 (NCBI, NM 0021464.3) was purchased from Origene as pCMV6-Entry vector (RC206592). The full ORF of hIDO1 was cloned into the mammalian expression vector pcDNA6/myc-His from Invitrogen. Human embryonic kidney 293 T (HEK 293 T) cells were transiently transfected with the plasmid construct encoding hIDO1. A 75 cm^2 flask containing HEK 293 T cells at a confluency of 70% was transfected with jetPEI DNA transfection reagent (Polyplus-transfection), according to manufacturer’s protocol. A total of 20 µg of pcDNA-IDO1 along with 5 µg of pcDNA-GFP plasmid were used for the transfection; GFP was used to evaluate transfection efficiency prior to the cellular assays. 16–18 h post-transfection the 293 T cells were detached with trypsin, centrifuged, and re-suspended in 25 mL of DMEM medium without phenol red, supplemented with penicillin and streptomycin, 10% foetal bovine serum and 1 mM pyruvate (Gibco). Subsequently, 100 µL of cells were distributed to each well of two 96-well round-bottom plates that had been pre-loaded with 100 µL DMEM and the small organic test molecule in DMSO (for a final DMSO concentration of 2%). DMEM medium contains 78 µM L-Trp and was supplemented with 500 µM of L-Trp. Cells transfected with hIDO1 were incubated for 7 h at 37 °C in a CO2 incubator. The reaction was stopped in its linear phase by adding trichloroacetic acid (TCA) to the medium at a final concentration of 4%. Plates were centrifuged for 15 min at 4,000 rpm. 100 µL of supernatant was added to 100 µL of 2% (w/v) DMAB in glacial acetic acid. After 10 min the absorbance was measured at a wavelength of 480 nm to detect kynurenine formation. Alternatively, kynurenine content was determined by HPLC as done for the enzymatic assay.

T2 sequence (P14902 whole entry): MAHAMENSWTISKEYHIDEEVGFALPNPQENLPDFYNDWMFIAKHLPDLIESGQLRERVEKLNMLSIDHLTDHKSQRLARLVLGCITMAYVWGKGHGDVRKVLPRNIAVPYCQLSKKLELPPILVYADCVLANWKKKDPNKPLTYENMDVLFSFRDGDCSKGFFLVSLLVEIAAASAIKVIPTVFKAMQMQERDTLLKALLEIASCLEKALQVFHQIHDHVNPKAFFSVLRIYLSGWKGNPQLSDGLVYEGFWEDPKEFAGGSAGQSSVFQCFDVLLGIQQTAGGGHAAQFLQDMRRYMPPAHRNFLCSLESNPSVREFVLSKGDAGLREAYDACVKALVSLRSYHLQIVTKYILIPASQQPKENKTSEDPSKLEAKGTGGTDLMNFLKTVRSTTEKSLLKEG
T1 sequence (P14902 whole entry): as above

Compound	IC50 [1]	LE [kcal/mol/HA] [1] [kcal/mol/HA]	inhibition at 200 µM (hIDO1) [%]	melting point [°C]	Tox. [%] (HEK 293 T cells)
OC(COc1ccccc1-c1cnn[nH]1)c1ccccc1 (centres unmarked) [Compound 27, 2–(2-(1H-1,2,3-triazol-5-yl)phenoxy)-1-phenylethan-1-ol]	> 500 µM	–	–	153 to 155	–
COc1ccc(C(=O)c2cnn[nH]2)cc1 [Compound 105, (4-Methoxyphenyl)(1H-1,2,3-triazol-5-yl)methanone]	200 µM	0.34	22	–	0 (0) %
O=C(c1cnn[nH]1)c1ccco1 [Compound 114, Furan-2-yl(1H-1,2,3-triazol-5-yl)methanone]	230 µM	0.41	20	–	0 (0) %
O=C(c1ccsc1)c1cnn[nH]1 [Compound 117, Thiophen-3-yl(1H-1,2,3-triazol-5-yl)methanone]	67 µM and 68 µM	0.47	23	–	0 (0) %
O=C(c1ccccn1)c1cnn[nH]1 [Compound 120, Pyridin-2-yl(1H-1,2,3-triazol-5-yl)methanone]	> 1000 µM	–	–	161 to 163	–
O=C(c1cscn1)c1cnn[nH]1 [Compound 118, Thiazol-4-yl(1H-1,2,3-triazol-5-yl)methanone]	81 µM and 82 µM	0.46	17	–	0 (0) %
O=C(c1ccncc1)c1cnn[nH]1 [Compound 122, Pyridin-4-yl(1H-1,2,3-triazol-5-yl)methanone]	1200 µM	–	–	221 to 223	–
O=C(c1cccnc1)c1cnn[nH]1 [Compound 121, Pyridin-3-yl(1H-1,2,3-triazol-5-yl)methanone]	650 µM	0.33	3.9	–	0 (0) %
O=C(c1cnn[nH]1)c1ccccc1O [Compound 106, (2-Hydroxyphenyl)(1H-1,2,3-triazol-5-yl)methanone]	125 µM and 130 µM	0.38	12	–	0 (0) %
Cc1c(Cl)ccc(N)c1-c1nc[nH]n1 [Compound 156, 4-Chloro-3-methyl-2-(1H-1,2,4-triazol-3-yl)aniline]	90 µM	0.39	–	208 to 210	–
CC(=O)Nc1ccc(Cl)cc1-c1nc[nH]n1 [Compound 146, N-(4-Chloro-2-(1H-1,2,4-triazol-3-yl)phenyl)acetamide]	425 µM and 420 µM	0.29	89	–	0 (0) %
O=C(c1ccc(F)cc1)c1cnn[nH]1 [Compound 110, (4-Fluorophenyl)(1H-1,2,3-triazol-5-yl)methanone]	185 µM and 190 µM	0.36	12	–	0 (0) %
c1ccc(-n2cncn2)cc1 [Compound 170, 1-phenyl-1,2,4-triazole]	870 µM	0.38	–	–	–
O=C(Nc1ccccc1-c1nc[nH]n1)c1ccccc1 [Compound 152, N-(2-(1H-1,2,4-triazol-3-yl)phenyl)benzamide]	> 100 µM	–	–	–	–
O=C(c1cccc(Cl)c1)c1cnn[nH]1 [Compound 101, (3-Chlorophenyl)(1H-1,2,3-triazol-5-yl)methanone]	450 µM	0.33	–	–	–

Continued, in another order:

IC50 [1]	LE [kcal/mol/HA] [1] [kcal/mol/HA]	inhibition at 200 µM (hIDO1) [%]	melting point [°C]	Compound	Tox. [%] (HEK 293 T cells)
52 µM	0.45	97	–	Brc1ccc(Nc2c[nH]nn2)cc1 [Compound 78, N-(4-Bromophenyl)-1,2,3-triazol-4-amine, reference compound]	0 (0) %
13 µM	0.48	55	–	O=C(c1ccc(Br)cc1)c1cnn[nH]1 [Compound 109, (4-Bromophenyl)(1H-1,2,3-triazol-5-yl)methanone]	0 (0) %
29 µM	0.48	82	–	Nc1c(Cl)cccc1-c1nc[nH]n1 [Compound 141, 2-Chloro-6-(1H-1,2,4-triazol-3-yl)aniline]	13 (4) %
31 µM	0.29	–	96 to 99	Clc1cccc(-c2c[nH]nn2)c1OCCc1ccccc1 [Compound 43, 4–(3-Chloro-2-phenethoxyphenyl)-1,2,3-triazole]	–
0.14 µM	0.72	–	186 to 188	Oc1ccc(F)cc1-c1cnn[nH]1 [Compound 34, 4-Fluoro-2-(1H-1,2,3-triazol-5-yl)phenol]	–
16 µM	0.55	73	–	O=C(c1ccoc1)c1cnn[nH]1 [Compound 115, Furan-3-yl(1H-1,2,3-triazol-5-yl)methanone]	0 (0) %
0.55 µM	0.66	–	160 to 162	Cc1ccc(O)c(-c2cnn[nH]2)c1 [Compound 35, 4-Methyl-2-(1H-1,2,3-triazol-5-yl)phenol]	–
11 µM	0.45	32	–	O=C(c1cnn[nH]1)c1ccc(Cl)cc1O [Compound 112, (4-Chloro-2-hydroxyphenyl)(1H-1,2,3-triazol-5-yl)methanone]	0 (0) %
88 µM	0.29	–	148 to 151	Oc1ccc(Cc2ccccc2)cc1-c1cnn[nH]1 [Compound 38, 4-Benzyl-2-(1H-1,2,3-triazol-5-yl)phenol]	–
0.25 µM	0.64	–	71 to 73	CCc1ccc(O)c(-c2cnn[nH]2)c1 [Compound 36, 4-Ethyl-2-(1H-1,2,3-triazol-5-yl)phenol]	–
1 µM	0.55	–	212 to 214	Nc1ccc(Cl)c(N)c1-c1nc[nH]n1 [Compound 157, 4-Chloro-2-(1H-1,2,4-triazol-3-yl)benzene-1,3-diamine]	–
0.75 µM	0.56	–	138 to 140	CCCc1ccc(O)c(-c2cnn[nH]2)c1 [Compound 37, 4-Propyl-2-(1H-1,2,3-triazol-5-yl)phenol]	–
51 µM	0.45	65	–	Clc1ccc(-c2c[nH]nn2)cc1Cl [Compound 49, 4–(3,4-Dichlorophenyl)-1,2,3-triazole]	0 (0) %
31 µM	0.47	56	–	Nc1cccc(N)c1-c1nc[nH]n1 [Compound 142, 2-(1H-1,2,4-triazol-3-yl)benzene-1,3-diamine]	11 (0.4) %
31 µM	0.47	63	–	Clc1ccc(-c2c[nH]nn2)c(Cl)c1 [Compound 48, 4–(2,4-Dichlorophenyl)-1,2,3-triazole]	0 (0) %
17 µM	0.54	62	–	O=C(c1cnn[nH]1)c1cccs1 [Compound 116, Thiophen-2-yl(1H-1,2,3-triazol-5-yl)methanone]	0 (0) %
31 µM	0.44	37	–	O=C(c1ccc(Cl)cc1)c1cnn[nH]1 [Compound 102, (4-Chlorophenyl)(1H-1,2,3-triazol-5-yl)methanone]	0 (0) %

From paper PMC9246256, “Structure-based optimization of type III indoleamine 2,3-dioxygenase 1 (IDO1) inhibitors” (Journal of Enzyme Inhibition and Medicinal Chemistry, 2022)
